Experiments:
[1] = tested on: corn (Krasnodar 385 MV variety); test: Corn seed treatment with BHMPA salts: germination energy and germination rate; format: in vivo
Method in brief: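 Corn, winter wheat and rice seeds (50 per dish, on filter paper) were soaked for 1 h in BHMPA or its metal salts at 1·10^−6-1·10^−12%, with water as control. Germination energy was read on day 4 and germination rate on day 8 for wheat and day 7 for rice and corn, following GOST 12038-84, as the mean of four replicates.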

[2] = tested on: rice (Diamant variety); test: Rice seed treatment with BHMPA salts: germinating power; format: in vivo
Method in brief: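 Seeds (50 per Petri dish on two layers of filter paper) soaked 1 h in BHMPA or its Ca, Mg, Na, Co, Mn, Cu or Zn salts at 1·10^−6-1·10^−12%, with water controls. Germination energy read on day 4, germination on day 8 (wheat) or day 7 (rice, corn), as % means of four replicates. Germinating power taken as root and sprout length plus wet and dry mass per 100 seedlings.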

[3] = comparative study vs Melaphen, 1·10^−9% solution
[4] = rice seed treatment, comparison with Melaphen (Table XXXIII), solution 1 · 10^−9%
[5] = rice seeds, solution concentration 1 · 10^−6%
[6] = rice seeds, solution concentration 1 · 10^−7%
[7] = rice seeds, solution concentration 1 · 10^−8%
[8] = rice seeds, solution concentration 1 · 10^−9%
[9] = rice seeds, solution concentration 1 · 10^−10%
[10] = rice seeds, solution concentration 1 · 10^−11%
[11] = rice seeds, solution concentration 1 · 10^−12%
[12] = rice, vs control, 1·10^−9% solution

`O.O.O=P([O-])(CO)CO.O=P([O-])(CO)CO.[Mn+2]` [Mn-salt, Manganese BHMPA Salt] gave a Germination energy ([1]; 1·10^−6% solution) of 81.0%, a Germination rate ([1]; 1·10^−6% solution) of 83.3% and a Germination energy ([1]; 1·10^−7% solution) of 82.3%. The Germination rate ([1]; 1·10^−7% solution) was 85.0%, the Germination energy ([1]; 1·10^−8% solution) was 84.7% and the Germination rate ([1]; 1·10^−8% solution) was 87.5%. The Germination energy ([1]; 1·10^−9% solution) was 87.7%, the Germination rate ([1]; 1·10^−9% solution) was 88.7% and the Germination rate ([1]; 1·10^−9% solution, listed as Mn) was 90.0%. It also gave a Germination energy ([1]; 1·10^−10% solution) of 85.0%, a Germination rate ([1]; 1·10^−10% solution) of 87.5% and a Germination energy ([1]; 1·10^−11% solution) of 82.7%. For the same compound, the Germination rate ([1]; 1·10^−11% solution) was 85.3%, the Germination energy ([1]; 1·10^−12% solution) was 80.3% and the Germination rate ([1]; 1·10^−12% solution) was 83.0%. For the same compound, the Germination energy [1, 3] was 87.3%, the Germination rate [1, 3] was 95.0% and the “optimum concentration for treating rice seeds before sowing” value ([2]; rice) was 1·10^−9%. For the same compound, the “Length, root” value [2, 4] was 6.8 cm, the “Length, root, + % to control” value [2, 4] was 42% and the “Length, sprout” value [2, 4] was 4.2 cm. The “Length, sprout, + % to control” value [2, 4] was 35%, the “Mass, dry, root” value [2, 4] was 0.24 g/100 plantlings and the “Mass, dry, root, + % to control” value [2, 4] was 14%. For the same compound, the “Mass, dry, sprout” value [2, 4] was 0.28 g/100 plantlings, the “Mass, dry, sprout, + % to control” value [2, 4] was 12% and the “Mass, wet, root” value [2, 4] was 1.34 g/100 plantlings. The “Mass, wet, root, + % to control” value [2, 4] was 37%, the “Mass, wet, sprout” value [2, 4] was 2.34 g/100 plantlings and the “Mass, wet, sprout, + % to control” value [2, 4] was 55%. The “Length, root” value [2, 5] was 6.2 cm, the “Length, root, + % to control” value [2, 5] was 3% and the “Length, sprout” value [2, 5] was 2.7 cm. The “Length, sprout, + % to control” value [2, 5] was 8%, the “Mass, dry, root” value [2, 5] was 0.22 g/100 plantlings and the “Mass, dry, root, + % to control” value [2, 5] was 10%. The “Mass, dry, sprout” value [2, 5] was 0.29 g/100 plantlings, the “Mass, dry, sprout, + % to control” value [2, 5] was 11.5% and the “Mass, wet, root” value [2, 5] was 1.13 g/100 plantlings. The “Mass, wet, root, + % to control” value [2, 5] was 15%, the “Mass, wet, sprout” value [2, 5] was 1.80 g/100 plantlings and the “Mass, wet, sprout, + % to control” value [2, 5] was 5%. The “Length, root” value [2, 6] was 6.4 cm, the “Length, root, + % to control” value [2, 6] was 7% and the “Length, sprout” value [2, 6] was 2.9 cm. For the same compound, the “Length, sprout, + % to control” value [2, 6] was 16%, the “Mass, dry, root” value [2, 6] was 0.25 g/100 plantlings and the “Mass, dry, root, + % to control” value [2, 6] was 25%. The “Mass, dry, sprout” value [2, 6] was 0.36 g/100 plantlings, the “Mass, dry, sprout, + % to control” value [2, 6] was 38% and the “Mass, wet, root” value [2, 6] was 1.21 g/100 plantlings. The “Mass, wet, root, + % to control” value [2, 6] was 23%, the “Mass, wet, sprout” value [2, 6] was 2.12 g/100 plantlings and the “Mass, wet, sprout, + % to control” value [2, 6] was 23%. The “Length, root” value [2, 7] was 6.5 cm, the “Length, root, + % to control” value [2, 7] was 8% and the “Length, sprout” value [2, 7] was 3.1 cm. For the same compound, the “Length, sprout, + % to control” value [2, 7] was 24%, the “Mass, dry, root” value [2, 7] was 0.28 g/100 plantlings and the “Mass, dry, root, + % to control” value [2, 7] was 40%. For the same compound, the “Mass, dry, sprout” value [2, 7] was 0.41 g/100 plantlings, the “Mass, dry, sprout, + % to control” value [2, 7] was 58% and the “Mass, wet, root” value [2, 7] was 1.30 g/100 plantlings. For the same compound, the “Mass, wet, root, + % to control” value [2, 7] was 33%, the “Mass, wet, sprout” value [2, 7] was 2.26 g/100 plantlings and the “Mass, wet, sprout, + % to control” value [2, 7] was 31%. For the same compound, the “Length, root” value [2, 8] was 6.8 cm, the “Length, root, + % to control” value [2, 8] was 13% and the “Length, sprout” value [2, 8] was 3.3 cm. For the same compound, the “Length, sprout, + % to control” value [2, 8] was 32%, the “Mass, dry, root” value [2, 8] was 0.32 g/100 plantlings and the “Mass, dry, root, + % to control” value [2, 8] was 60%. For the same compound, the “Mass, dry, sprout” value [2, 8] was 0.44 g/100 plantlings, the “Mass, dry, sprout, + % to control” value [2, 8] was 69% and the “Mass, wet, root” value [2, 8] was 1.44 g/100 plantlings. For the same compound, the “Mass, wet, root, + % to control” value [2, 8] was 47%, the “Mass, wet, sprout” value [2, 8] was 2.41 g/100 plantlings and the “Mass, wet, sprout, + % to control” value [2, 8] was 40%. The “Length, root” value [2, 9] was 6.7 cm, the “Length, root, + % to control” value [2, 9] was 12% and the “Length, sprout” value [2, 9] was 3.0 cm. For the same compound, the “Length, sprout, + % to control” value [2, 9] was 12%, the “Mass, dry, root” value [2, 9] was 0.26 g/100 plantlings and the “Mass, dry, root, + % to control” value [2, 9] was 30%. The “Mass, dry, sprout” value [2, 9] was 0.39 g/100 plantlings, the “Mass, dry, sprout, + % to control” value [2, 9] was 50% and the “Mass, wet, root” value [2, 9] was 1.33 g/100 plantlings. For the same compound, the “Mass, wet, root, + % to control” value [2, 9] was 36%, the “Mass, wet, sprout” value [2, 9] was 2.30 g/100 plantlings and the “Mass, wet, sprout, + % to control” value [2, 9] was 34%. For the same compound, the “Length, root” value [2, 10] was 6.5 cm, the “Length, root, + % to control” value [2, 10] was 8% and the “Length, sprout” value [2, 10] was 2.9 cm. The “Length, sprout, + % to control” value [2, 10] was 16%, the “Mass, dry, root” value [2, 10] was 0.23 g/100 plantlings and the “Mass, dry, root, + % to control” value [2, 10] was 15%. For the same compound, the “Mass, dry, sprout” value [2, 10] was 0.36 g/100 plantlings, the “Mass, dry, sprout, + % to control” value [2, 10] was 38% and the “Mass, wet, root” value [2, 10] was 1.29 g/100 plantlings. For the same compound, the “Mass, wet, root, + % to control” value [2, 10] was 31%, the “Mass, wet, sprout” value [2, 10] was 2.21 g/100 plantlings and the “Mass, wet, sprout, + % to control” value [2, 10] was 28%. For the same compound, the “Length, root” value [2, 11] was 6.3 cm, the “Length, root, + % to control” value [2, 11] was 5% and the “Length, sprout” value [2, 11] was 2.7 cm. The “Length, sprout, + % to control” value [2, 11] was 8%, the “Mass, dry, root” value [2, 11] was 0.20 g/100 plantlings and the “Mass, dry, root, + % to control” value [2, 11] was 0%. For the same compound, the “Mass, dry, sprout” value [2, 11] was 0.32 g/100 plantlings, the “Mass, dry, sprout, + % to control” value [2, 11] was 23% and the “Mass, wet, root” value [2, 11] was 1.27 g/100 plantlings. The “Mass, wet, root, + % to control” value [2, 11] was 29%, the “Mass, wet, sprout” value [2, 11] was 2.14 g/100 plantlings and the “Mass, wet, sprout, + % to control” value [2, 11] was 24%. For the same compound, the “dry mass of the roots increased by” value [2, 12] was 60%, the “dry mass of the sprouts increased by” value [2, 12] was 69% and the “length of the root increased by” value [2, 12] was 13%. The “length of the sprout increased by” value [2, 12] was 32%, the “wet mass of the roots increased by” value [2, 12] was 47% and the “wet mass of the sprouts increased by” value [2, 12] was 40%.
